For one data set, the target named is T1, UGT1A3 (Homo sapiens, UniProt P35503).
T1 sequence (P35503 29-534): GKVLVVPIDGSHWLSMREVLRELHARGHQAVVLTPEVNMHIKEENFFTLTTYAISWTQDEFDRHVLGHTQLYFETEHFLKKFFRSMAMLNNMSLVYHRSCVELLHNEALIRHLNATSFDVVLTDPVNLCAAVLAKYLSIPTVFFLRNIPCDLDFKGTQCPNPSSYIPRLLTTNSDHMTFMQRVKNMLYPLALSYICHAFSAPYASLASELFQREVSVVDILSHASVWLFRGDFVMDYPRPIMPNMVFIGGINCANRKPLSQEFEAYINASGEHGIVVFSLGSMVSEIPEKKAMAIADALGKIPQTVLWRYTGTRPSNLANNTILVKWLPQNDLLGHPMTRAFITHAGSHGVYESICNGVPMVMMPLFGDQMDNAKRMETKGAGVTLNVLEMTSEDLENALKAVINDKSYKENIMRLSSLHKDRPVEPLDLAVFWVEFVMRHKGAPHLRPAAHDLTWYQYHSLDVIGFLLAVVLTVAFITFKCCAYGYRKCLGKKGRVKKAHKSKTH
The data set can be described thus: in vitro. The settings on record: recombinant enzyme, pH 7.4. As for the experimental part: (§1) Experimental Summary: UGT Reaction Phenotyping (7 Isoforms).
(§2) Experimental Procedure: cDNA expressed human UGT enzyme preparations (Supersomes) supplied by BD Biosciences were obtained and stored at −80° C. prior to use. The specific isoforms were chosen by the performing laboratory based on published guidelines. They are considered the clinically relevant of the UGT isoforms (E. Kasteel et al. Human variability in isoform-specific UDP-glucuronosyltransferases: markers of acute and chronic exposure, polymorphisms and uncertainty factors. Arch Toxicol. 2020; 94(8): 2637-2661)
(§3) Supersomes in 0.1 M Tris buffer pH 7.4, alamethicin (44.6 μg/mL) and test compound (final concentration of 5 μM; final DMSO concentration ≤0.1%) were pre-incubated at 37° C. prior to the addition of UDGPA (final concentration 2 mM) to initiate the reaction. Incubations were also performed using control Supersomes (no UGT enzymes present) to reveal any non-enzymatic degradation. Compounds known to be metabolized specifically by each UGT isoform were used as control compounds (7-hydroxy-4-trifluoromethylcoumarin, all but UGT1A4, or trifluoperazine for UGT1A4).
(§4) CBG or Compound 1 were incubated in duplicate for 0, 10, 20, 40 and 60 min with each isoform. The reactions were stopped by the addition of methanol containing an analytical internal standard at the time points specified in the table above. Stopped reactions were kept on ice for at least ten minutes and the samples were centrifuged to remove precipitated protein. Supernatants were analyzed by LC-MS/MS methodology developed by the performing laboratory to quantitate the parent remaining.
(§5) The change in CBG concentration were used to calculate the Half life (t1/2 in min) and the intrinsic clearance ([…]) as shown in the following table (S. C, Khojasteh et.al., Drug Metabolism and Pharmacokinetics Quick Guide, Springer, NY, 2011), Intrinsic Clearance (CIint) is a measure of the ability of hepatocytes to eliminate drug irrespective other factors such as blood flow or protein binding. The calculations were the same as those used in Example 3A.

Another data set has as its target T2, UGT2B15 (Homo sapiens, UniProt P54855).
T2 sequence (P54855 24-530): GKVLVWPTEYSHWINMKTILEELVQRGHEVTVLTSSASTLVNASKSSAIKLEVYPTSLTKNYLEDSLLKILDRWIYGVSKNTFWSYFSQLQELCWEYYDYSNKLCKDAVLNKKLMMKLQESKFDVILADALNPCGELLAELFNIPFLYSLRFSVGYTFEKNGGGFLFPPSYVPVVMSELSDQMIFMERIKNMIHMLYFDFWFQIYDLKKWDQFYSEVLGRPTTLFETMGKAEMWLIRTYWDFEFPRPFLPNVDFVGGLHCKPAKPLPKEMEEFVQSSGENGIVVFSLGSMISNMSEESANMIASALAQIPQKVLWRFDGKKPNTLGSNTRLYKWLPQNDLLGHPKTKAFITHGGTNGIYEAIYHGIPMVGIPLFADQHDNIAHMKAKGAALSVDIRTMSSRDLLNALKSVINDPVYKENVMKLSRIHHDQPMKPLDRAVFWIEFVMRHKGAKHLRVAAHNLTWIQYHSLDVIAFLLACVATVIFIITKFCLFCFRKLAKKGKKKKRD
In words: in vitro. The settings on record: recombinant enzyme, pH 7.4. How it is done:
as §1, §2, §3, §4, §5

Another data set addresses T3, UGT1A6 (Homo sapiens, UniProt P19224).
T3 sequence (P19224 27-532): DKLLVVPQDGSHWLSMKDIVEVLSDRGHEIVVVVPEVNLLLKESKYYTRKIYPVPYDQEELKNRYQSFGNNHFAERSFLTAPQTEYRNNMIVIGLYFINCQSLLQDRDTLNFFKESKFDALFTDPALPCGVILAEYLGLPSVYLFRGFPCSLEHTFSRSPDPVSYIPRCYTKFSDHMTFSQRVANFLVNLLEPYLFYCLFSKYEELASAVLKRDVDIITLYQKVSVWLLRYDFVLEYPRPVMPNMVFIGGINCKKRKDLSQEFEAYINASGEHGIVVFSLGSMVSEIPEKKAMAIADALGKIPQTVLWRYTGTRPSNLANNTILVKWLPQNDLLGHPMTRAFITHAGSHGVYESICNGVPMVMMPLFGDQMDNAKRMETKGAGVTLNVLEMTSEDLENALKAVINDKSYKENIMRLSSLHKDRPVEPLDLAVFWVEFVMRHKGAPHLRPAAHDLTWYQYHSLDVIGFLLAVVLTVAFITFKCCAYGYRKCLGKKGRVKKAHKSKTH
In words: in vitro. The settings on record: recombinant enzyme, pH 7.4. As for the experimental part: as §1, §2, §3, §4, §5

Data set [1] is described as follows: PK study of CBG, Compound 1 and Compound 2, PO or IP. The settings on record: CBG 30 mg/kg PO and IP; Compound 1 31.5 mg/kg PO; Compound 2 32.7 mg/kg PO. The data set is classed as in vivo, male Sprague Dawley rats. How it is done: This study evaluated the pharmacokinetics of (E)-2-(3,7-dimethylocta-2,6-dien-1-yl)-3-methoxy-5-pentylphenol (1) and (E)-2-(3,7-dimethylocta-2,6-dien-1-yl)-1,3-dimethoxy-5-pentylbenzene (2) following oral (PO) or intraperitoneal (IP) administration to male Sprague Dawley rats.
For the oral formulation the test article was added to the appropriate amount of Maisine and stirred until uniform. Next Labrasol was added to the formulation and allowed to stir until uniform. Finally, water will be slowly added to the stirring formulation to achieve the final volume.
For the IP formulation the test article was added to the appropriate amount of ethanol and stirred until uniform. Next, the appropriate amount of tween-20 was added to the stirred formulation. Finally, the appropriate amount of saline was slowly added to the stirred formulation to achieve the final volume.
Animals were fasted the evening prior to dosing with food returned at 4 h postdose, and the animals weighed on the morning of dose administration.
IP doses were administered via injection to the intraperitoneal region. PO doses were delivered into the stomach via syringe and gavage tube.
Blood was collected from via direct jugular stick or from the tail vein. Blood samples were kept on ice until being centrifuged at 3200 RPM for 10 minutes at ˜5° C. within 1 h of collection. Plasma was split into 2 cryovials in approximately equal volumes (0.05 mLs) and stored at −20° C.±5° C. until shipment.

This note sets out measurements from patent publication US11992497B2 (priority 2021, dated 2024).

A word on the half-life: it is the time needed for the level to fall by half in the phase considered. Broadly, the microsomal CLint is a measure of how fast metabolising enzymes remove a compound, apart from limits set by blood flow. `O=c1cc(C(F)(F)F)c2ccc(O)cc2o1` [7-OH4trifluoromethylcoumarin, 7-hydroxy-4-trifluoromethylcoumarin]: the half-life at 1 µM on UGT1A3 was 51.8 min; on UGT2B15, 24.9 min; on UGT1A6, 6.41 min. In addition, the microsomal CLint at 1 µM on UGT1A3 came out at 26.8 µL/min/mg; on UGT2B15, 55.8 µL/min/mg; on UGT1A6, 216 µL/min/mg.
On to `CCCCCc1cc(O)c(C/C=C(\C)CCC=C(C)C)c(O)c1` [CBG, cannabigerol], for which the “glucuronidation / glucuronide formation in plasma (in words)” value (“glucuronidation / glucuronide formation” for short) in data set [1] is on record as “converted by glucuronidation to CBG-glucoronide”. For the same molecule, the figures for the half-life at 1 µM at UGT1A3, on UGT2B15 and on UGT1A6 were 44.1 min, 47.6 min and 95 min, respectively. The microsomal CLint at 1 µM at UGT1A3 came out at 31.4 µL/min/mg; at UGT2B15, 29.1 µL/min/mg; at UGT1A6 it was 14.6 µL/min/mg.
As to `CCCCCc1cc(O)c(C/C=C(\C)CCC=C(C)C)c(OC)c1` [Compound 1, (E)-2-(3,7-dimethylocta-2,6-dien-1-yl)-3-methoxy-5-pentylphenol], in data set [1], the “glucuronidation / glucuronide formation” value was “significantly reduced levels of glucuronidation compared to CBG”. In addition, the half-life at 1 µM on UGT1A3 was 108 min; on UGT2B15, 57.2 min; at UGT1A6, greater than 240 min. The microsomal CLint at 1 µM at UGT1A3 was 12.8 µL/min/mg; at UGT2B15 it was 24.2 µL/min/mg; on UGT1A6, less than 2.89 µL/min/mg.
With `CCCCCc1cc(OC)c(C/C=C(\C)CCC=C(C)C)c(OC)c1` [Compound 2, (E)-2-(3,7-dimethylocta-2,6-dien-1-yl)-1,3-dimethoxy-5-pentylbenzene], the “glucuronidation / glucuronide formation” value in data set [1] was “completely blocked glucuronide formation”.
